Reference: patent US8877748B2, “Heterocyclic fused anthraquinone derivatives, manufacturing method and pharmaceutical composition using thereof” (National Defense Medical Center, priority 2012, dated 2014)

Legend:
TK-10 = experiment: NCI one-dose screening, renal cancer TK-10; assay type: cell-based, human; settings: 10 μM
human tumor cell lines = experiment: NCI one-dose screening, Mean / Delta / Range of growth percent over all tested cell lines; assay type: cell-based; settings: 10 μM
EKVX = experiment: NCI one-dose screening, non-small cell lung cancer EKVX; assay type: cell-based, human; settings: 10 μM
HL-60, TB = experiment: NCI one-dose screening, leukemia HL-60, TB; assay type: cell-based, human; settings: 10 μM
SNB-19 = experiment: NCI one-dose screening, CNS cancer SNB-19; assay type: cell-based, human; settings: 10 μM
RXF, 393 = experiment: NCI one-dose screening, renal cancer RXF, 393; assay type: cell-based, human; settings: 10 μM
DU145 = experiment: NCI one-dose screening, prostate cancer DU145; assay type: cell-based, human; settings: 10 μM
M14 = experiment: NCI one-dose screening, melanoma M14; assay type: cell-based, human; settings: 10 μM
OVCAR-8 = experiment: NCI one-dose screening, ovarian cancer OVCAR-8; assay type: cell-based, human; settings: 10 μM
SR = experiment: NCI one-dose screening, leukemia SR; assay type: cell-based, human; settings: 10 μM
SK-OV-3 = experiment: NCI one-dose screening, ovarian cancer SK-OV-3; assay type: cell-based, human; settings: 10 μM
NCI-H23 = experiment: NCI one-dose screening, non-small cell lung cancer NCI-H23; assay type: cell-based, human; settings: 10 μM
COLO 205 = experiment: NCI one-dose screening, colon cancer COLO 205; assay type: cell-based, human; settings: 10 μM
T-47D = experiment: NCI one-dose screening, breast cancer T-47D; assay type: cell-based, human; settings: 10 μM
SK-MEL-5 = experiment: NCI one-dose screening, melanoma SK-MEL-5; assay type: cell-based, human; settings: 10 μM
PC-3 = experiment: NCI one-dose screening, prostate cancer PC-3; assay type: cell-based, human; settings: 10 μM
PRMI-8226 cell line = experiment: NCI one-dose screening, leukemia PRMI-8226; assay type: cell-based, human; settings: 10 μM
MDA-MB-468 = experiment: NCI one-dose screening, breast cancer MDA-MB-468; assay type: cell-based, human; settings: 10 μM
HCT-116 = experiment: NCI one-dose screening, colon cancer HCT-116; assay type: cell-based, human; settings: 10 μM
SK-MEL-2 = experiment: NCI one-dose screening, melanoma SK-MEL-2; assay type: cell-based, human; settings: 10 μM
HT29 = experiment: NCI one-dose screening, colon cancer HT29; assay type: cell-based, human; settings: 10 μM
SK-MEL-28 = experiment: NCI one-dose screening, melanoma SK-MEL-28; assay type: cell-based, human; settings: 10 μM
MCF7 = experiment: NCI one-dose screening, breast cancer MCF7; assay type: cell-based, human; settings: 10 μM
ACHN = experiment: NCI one-dose screening, renal cancer ACHN; assay type: cell-based, human; settings: 10 μM
UACC-62 = experiment: NCI one-dose screening, melanoma UACC-62; assay type: cell-based, human; settings: 10 μM
IGROV1 = experiment: NCI one-dose screening, ovarian cancer IGROV1; assay type: cell-based, human; settings: 10 μM
KM12 = experiment: NCI one-dose screening, colon cancer KM12; assay type: cell-based, human; settings: 10 μM
NCI-H226 = experiment: NCI one-dose screening, non-small cell lung cancer NCI-H226; assay type: cell-based, human; settings: 10 μM
HCT-15 = experiment: NCI one-dose screening, colon cancer HCT-15; assay type: cell-based, human; settings: 10 μM
MDA-MB-231/ATCC = experiment: NCI one-dose screening, breast cancer MDA-MB-231/ATCC; assay type: cell-based, human; settings: 10 μM
SNB-75 = experiment: NCI one-dose screening, CNS cancer SNB-75; assay type: cell-based, human; settings: 10 μM
[1] = NCI one-dose screening, renal cancer A489; assay type: cell-based, human; settings: 10 μM
NCI-H522 = experiment: NCI one-dose screening, non-small cell lung cancer NCI-H522; assay type: cell-based, human; settings: 10 μM
BT-549 = experiment: NCI one-dose screening, breast cancer BT-549; assay type: cell-based, human; settings: 10 μM
LOX IMVI = experiment: NCI one-dose screening, melanoma LOX IMVI; assay type: cell-based, human; settings: 10 μM
HCC-2998 = experiment: NCI one-dose screening, colon cancer HCC-2998; assay type: cell-based, human; settings: 10 μM
SN12C = experiment: NCI one-dose screening, renal cancer SN12C; assay type: cell-based, human; settings: 10 μM
SF-539 = experiment: NCI one-dose screening, CNS cancer SF-539; assay type: cell-based, human; settings: 10 μM
OVCAR-5 = experiment: NCI one-dose screening, ovarian cancer OVCAR-5; assay type: cell-based, human; settings: 10 μM
NCl/ADR-RES = experiment: NCI one-dose screening, breast cancer NCl/ADR-RES; assay type: cell-based, human; settings: 10 μM; listed under Ovarian cancer
OVCAR-3 = experiment: NCI one-dose screening, ovarian cancer OVCAR-3; assay type: cell-based, human; settings: 10 μM
CAKI-1 = experiment: NCI one-dose screening, renal cancer CAKI-1; assay type: cell-based, human; settings: 10 μM
U251 = experiment: NCI one-dose screening, CNS cancer U251; assay type: cell-based, human; settings: 10 μM
K562cell line = experiment: NCI one-dose screening, leukemia K562; assay type: cell-based, human; settings: 10 μM
SF-268 = experiment: NCI one-dose screening, CNS cancer SF-268; assay type: cell-based, human; settings: 10 μM
786-O = experiment: NCI one-dose screening, renal cancer 786-O; assay type: cell-based, human; settings: 10 μM
MDA, -MB-435 = experiment: NCI one-dose screening, breast cancer MDA, -MB-435; assay type: cell-based, human; settings: 10 μM; listed under Melanoma
HOP-62 = experiment: NCI one-dose screening, non-small cell lung cancer HOP-62; assay type: cell-based, human; settings: 10 μM
NCI-H460 = experiment: NCI one-dose screening, non-small cell lung cancer NCI-H460; assay type: cell-based, human; settings: 10 μM
MOLT-4 = experiment: NCI one-dose screening, leukemia MOLT-4; assay type: cell-based, human; settings: 10 μM
UO-31 = experiment: NCI one-dose screening, renal cancer UO-31; assay type: cell-based, human; settings: 10 μM
SF-295 = experiment: NCI one-dose screening, CNS cancer SF-295; assay type: cell-based, human; settings: 10 μM
[2] = test system: PC-3 prostate cancer cell line; experiment: SRB assay cell viability, PC-3 prostate cancer cell line; assay type: cell-based, human; settings: Homo sapiens, PC-3 prostate cancer cell line, Table II prints no unit, μM printed, read-out: SRB assay: 50% inhibition of cancer cell proliferation of sample concentration (IC50) of PC-3 prostate cancer cell line
UACC-257 = experiment: NCI one-dose screening, melanoma UACC-257; assay type: cell-based, human; settings: 10 μM
HOP-92 = experiment: NCI one-dose screening, non-small cell lung cancer HOP-92; assay type: cell-based, human; settings: 10 μM
HS 578-T = experiment: NCI one-dose screening, breast cancer HS 578-T; assay type: cell-based, human; settings: 10 μM; Breast cancer
MALME-3M = experiment: NCI one-dose screening, melanoma MALME-3M; assay type: cell-based, human; settings: 10 μM
A549/ATCC = experiment: NCI one-dose screening, non-small cell lung cancer A549/ATCC; assay type: cell-based, human; settings: 10 μM

O=C1c2ccccc2C(=O)c2c1cc(Sc1ccc(F)cc1F)c1nsnc21 [C39, 4-(2,4-difluorophenylthio)anthra[2,1-c] [1,2,5]thiadiazol-6,11-dione]
Growth Percent TK-10 (TK-10): 111.93%
Growth Percent Delta (human tumor cell lines; delta over all cell lines): 119.50%
Growth Percent Mean (human tumor cell lines; mean over all cell lines): 32.54%
Growth Percent Range (human tumor cell lines; range over all cell lines): 198.89%
Growth Percent EKVX (EKVX): 98.12%
Growth Percent HL-60(TB) (HL-60, TB): −37.71%
Growth Percent SNB-19 (SNB-19): 87.35%
Growth Percent RXF 393 (RXF, 393): 36.69%
Growth Percent DU145 (DU145): 41.32%
Growth Percent M14 (M14): 53.77%
Growth Percent OVCAR-8 (OVCAR-8): 0.32%
Growth Percent SR (SR): 0.20%
Growth Percent SK-OV-3 (SK-OV-3): 92.58%
Growth Percent NCI-H23 (NCI-H23): 9.53%
Growth Percent COLO 205 (COLO 205): 104.04%
Growth Percent T-47D (T-47D): −28.61%
Growth Percent SK-MEL-5 (SK-MEL-5): 48.53%
Growth Percent PC-3 (PC-3): −9.72%
Growth Percent RPMI-8226 (PRMI-8226 cell line): 6.29%
Growth Percent MDA-MB-468 (MDA-MB-468): −86.96%
Growth Percent HCT-116 (HCT-116): −63.06%
Growth Percent SK-MEL-2 (SK-MEL-2): 51.79%
Growth Percent HT29 (HT29): 102.45%
Growth Percent SK-MEL-28 (SK-MEL-28): 79.45%
Growth Percent MCF7 (MCF7): 6.58%
Growth Percent ACHN (ACHN): 34.93%
Growth Percent UACC-62 (UACC-62): 53.27%
Growth Percent IGROV1 (IGROV1): 975%
Growth Percent KM12 (KM12): 51.79%
Growth Percent NCI-H226 (NCI-H226): 88.85%
Growth Percent HCT-15 (HCT-15): 45.84%
Growth Percent MDA-MB-231/ATCC (MDA-MB-231/ATCC): −9.73%
Growth Percent SNB-75 (SNB-75): 42.86%
Growth Percent A498 [1]: 50.80%
Growth Percent NCI-H522 (NCI-H522): 61.06%
Growth Percent BT-549 (BT-549): 66.40- Percent
Growth Percent LOX IMVI (LOX IMVI): −42.03%
Growth Percent HCC-2998 (HCC-2998): 107.02%
Growth Percent SN12C (SN12C): 9.12%
Growth Percent SF-539 (SF-539): 58.79%
Growth Percent OVCAR-5 (OVCAR-5): 110.21%
Growth Percent NCI/ADR-RES (NCl/ADR-RES): −26.24%
Growth Percent OVCAR-3 (OVCAR-3): −52.32%
Growth Percent CAKI-1 (CAKI-1): 24.02%
Growth Percent U251 (U251): 34.47%
Growth Percent K562 (K562cell line): −21.06%
Growth Percent SF-268 (SF-268): 8.47%
Growth Percent 786-0 (786-O): 3.74%
Growth Percent MDA-MB-435 (MDA, -MB-435): −85.27%
Growth Percent HOP-62 (HOP-62): 58.46%
Growth Percent NCI-H460 (NCI-H460): 83.60%
Growth Percent MOLT-4 (MOLT-4): −41.57%
Growth Percent UO-31 (UO-31): 70.30%
Growth Percent SF-295 (SF-295): 68.77%
IC50 [2]: 14.8 µM
Growth Percent UACC-257 (UACC-257): 43.93%
Growth Percent HOP-92 (HOP-92): −18.39%
Growth Percent HS 578T (HS 578-T): 50.08%
Growth Percent MALME-3M (MALME-3M): 39.46%
Growth Percent A549/ATCC (A549/ATCC): 111.54%
